How the values were obtained:
[1] = xn = mol fraction of the nth substance listed; conditions: for surface tension liquid-gas: Drop volume; for mass density: 101 kPa, Liquid
[2] = refractive index (Na D-line) (dimensionless); φn = volume fraction of the nth substance listed; conditions: 101 kPa, Liquid, Standard Abbe refractometry

C1CCCC1 [cyclopentane] + C1COCCO1
Conditions | mass density [kg/m3] | refractive index | surface tension liquid-gas [mN/m]
[1], 283.15 K, x2 = 0.0516 | 766.94 | – | –
[1], 283.15 K, x2 = 0.0615 | – | – | 24.4
[1], 283.15 K, x2 = 0.095 | 777.38 | – | –
[1], 283.15 K, x2 = 0.121 | – | – | 24.58
[1], 283.15 K, x2 = 0.1824 | – | – | 24.76
[1], 283.15 K, x2 = 0.1944 | 802.55 | – | –
[1], 283.15 K, x2 = 0.2656 | – | – | 25.04
[1], 283.15 K, x2 = 0.2987 | 830.28 | – | –
[1], 283.15 K, x2 = 0.3973 | 857.59 | – | –
[1], 283.15 K, x2 = 0.4058 | – | – | 25.63
[1], 283.15 K, x2 = 0.499 | 886.71 | – | –
[1], 283.15 K, x2 = 0.5313 | – | – | 26.4
[1], 283.15 K, x2 = 0.6003 | 916.64 | – | –
[1], 283.15 K, x2 = 0.6376 | – | – | 27.35
[1], 283.15 K, x2 = 0.7063 | 949.05 | – | –
[1], 283.15 K, x2 = 0.7264 | – | – | 28.44
[1], 283.15 K, x2 = 0.806 | – | – | 29.74
[1], 283.15 K, x2 = 0.8072 | 980.93 | – | –
[1], 283.15 K, x2 = 0.902 | – | – | 31.92
[1], 283.15 K, x2 = 0.9076 | 1013.82 | – | –
[1], 283.15 K, x2 = 0.9528 | 1029.04 | – | –
[1], 283.15 K, x2 = 0.9642 | – | – | 33.79
[1], 298.15 K, x2 = 0.0488 | 751.07 | – | –
[1], 298.15 K, x2 = 0.0615 | – | – | 22.37
[1], 298.15 K, x2 = 0.0945 | 762.02 | – | –
[1], 298.15 K, x2 = 0.121 | – | – | 22.56
[1], 298.15 K, x2 = 0.1818 | 783.72 | – | –
[1], 298.15 K, x2 = 0.1824 | – | – | 22.74
[1], 298.15 K, x2 = 0.2656 | – | – | 23.01
[1], 298.15 K, x2 = 0.2983 | 814.38 | – | –
[1], 298.15 K, x2 = 0.3959 | 841.12 | – | –
[1], 298.15 K, x2 = 0.4058 | – | – | 23.66
[1], 298.15 K, x2 = 0.4962 | 869.6 | – | –
[1], 298.15 K, x2 = 0.5313 | – | – | 24.56
[1], 298.15 K, x2 = 0.6067 | 902 | – | –
[1], 298.15 K, x2 = 0.6376 | – | – | 25.57
[1], 298.15 K, x2 = 0.7034 | 931.45 | – | –
[1], 298.15 K, x2 = 0.7264 | – | – | 26.68
[1], 298.15 K, x2 = 0.806 | – | – | 27.93
[1], 298.15 K, x2 = 0.811 | 965.2 | – | –
[1], 298.15 K, x2 = 0.902 | – | – | 30.03
[1], 298.15 K, x2 = 0.9025 | 995.13 | – | –
[1], 298.15 K, x2 = 0.9506 | 1011.12 | – | –
[1], 298.15 K, x2 = 0.9642 | – | – | 31.9
[1], 313.15 K, x2 = 0.0449 | 734.98 | – | –
[1], 313.15 K, x2 = 0.0615 | – | – | 20.14
[1], 313.15 K, x2 = 0.094 | 746.73 | – | –
[1], 313.15 K, x2 = 0.121 | – | – | 20.45
[1], 313.15 K, x2 = 0.1824 | – | – | 20.77
[1], 313.15 K, x2 = 0.195 | 771.73 | – | –
[1], 313.15 K, x2 = 0.2656 | – | – | 21.15
[1], 313.15 K, x2 = 0.2962 | 798.13 | – | –
[1], 313.15 K, x2 = 0.3969 | 825.52 | – | –
[1], 313.15 K, x2 = 0.4058 | – | – | 21.83
[1], 313.15 K, x2 = 0.4983 | 854.12 | – | –
[1], 313.15 K, x2 = 0.5313 | – | – | 22.62
[1], 313.15 K, x2 = 0.5994 | 883.66 | – | –
[1], 313.15 K, x2 = 0.6376 | – | – | 23.59
[1], 313.15 K, x2 = 0.6987 | 913.64 | – | –
[1], 313.15 K, x2 = 0.7264 | – | – | 24.72
[1], 313.15 K, x2 = 0.8026 | 946.08 | – | –
[1], 313.15 K, x2 = 0.806 | – | – | 26.05
[1], 313.15 K, x2 = 0.902 | – | – | 28.24
[1], 313.15 K, x2 = 0.9066 | 979.72 | – | –
[1], 313.15 K, x2 = 0.9482 | 993.49 | – | –
[1], 313.15 K, x2 = 0.9642 | – | – | 30.03
[2], 283.15 K, φ2 = 0.0438 | – | 1.41192 | –
[2], 283.15 K, φ2 = 0.087 | – | 1.41201 | –
[2], 283.15 K, φ2 = 0.1787 | – | 1.41266 | –
[2], 283.15 K, φ2 = 0.2781 | – | 1.41381 | –
[2], 283.15 K, φ2 = 0.3694 | – | 1.41511 | –
[2], 283.15 K, φ2 = 0.4754 | – | 1.41686 | –
[2], 283.15 K, φ2 = 0.5928 | – | 1.41854 | –
[2], 283.15 K, φ2 = 0.7068 | – | 1.4208 | –
[2], 283.15 K, φ2 = 0.7975 | – | 1.42271 | –
[2], 283.15 K, φ2 = 0.9083 | – | 1.42517 | –
[2], 283.15 K, φ2 = 0.9568 | – | 1.42621 | –
[2], 298.15 K, φ2 = 0.0401 | – | 1.40332 | –
[2], 298.15 K, φ2 = 0.0979 | – | 1.40358 | –
[2], 298.15 K, φ2 = 0.1873 | – | 1.4043 | –
[2], 298.15 K, φ2 = 0.2827 | – | 1.40556 | –
[2], 298.15 K, φ2 = 0.3727 | – | 1.40698 | –
[2], 298.15 K, φ2 = 0.4709 | – | 1.40874 | –
[2], 298.15 K, φ2 = 0.5703 | – | 1.41064 | –
[2], 298.15 K, φ2 = 0.6847 | – | 1.41303 | –
[2], 298.15 K, φ2 = 0.785 | – | 1.41517 | –
[2], 298.15 K, φ2 = 0.8986 | – | 1.41772 | –
[2], 298.15 K, φ2 = 0.9436 | – | 1.41867 | –
[2], 313.15 K, φ2 = 0.0434 | – | 1.39455 | –
[2], 313.15 K, φ2 = 0.0858 | – | 1.39477 | –
[2], 313.15 K, φ2 = 0.181 | – | 1.3956 | –
[2], 313.15 K, φ2 = 0.2747 | – | 1.39691 | –
[2], 313.15 K, φ2 = 0.3702 | – | 1.3985 | –
[2], 313.15 K, φ2 = 0.472 | – | 1.40052 | –
[2], 313.15 K, φ2 = 0.5688 | – | 1.40259 | –
[2], 313.15 K, φ2 = 0.6767 | – | 1.40502 | –
[2], 313.15 K, φ2 = 0.7759 | – | 1.40729 | –
[2], 313.15 K, φ2 = 0.8977 | – | 1.41018 | –
[2], 313.15 K, φ2 = 0.933 | – | 1.41105 | –

Source: the NIST ThermoML archive (doi:10.1016/j.jct.2005.09.004)
